Experiment [1] deals with muscarinic acetylcholine receptors. As to conditions: read-out: affinity of site labelled by ^3 H-Oxo, cited from earlier work.
The next experiment has as its system cognitive function. As to conditions: age related; cited from earlier work.
For experiment [2], the system named is nicotinic acetylcholine receptors. The experiment is described as follows: inhibition of specific binding of ^3 H-methylcarbamylcholine (^3 H-MCC) in rat brain tissue. Particulars: rat cortical receptors; for Oxo/MCC Ratio: IC50 ^3 H-Oxo / IC50 ^3 H-MCC; for IC50: ^3 H-MCC 2 nM, 0° C., 60 min. An excerpt:
The pharmacological properties of the compounds of the invention can be illustrated by determining their capability to inhibit the specific binding of ^3 H-methylcarbamylcholine (^3 H-MCC) (Abood and Grassi, Biochem. Pharmacol., Vol. 35, pp. 4199-4202, (1986)).
^3 H-MCC labels the nicotinic receptors in the CNS. The inhibitory effect on ^3 H-MCC binding reflects the affinity for nicotinic acetylcholine receptors.
Fresh or frozen rat, brain tissue (hippocampus or cortex) was homogenized in assay buffer (50 mM Tris-HCl, pH 7.4, 120 mM NaCl, 5 mM KCl, 2 mM CaCl2, 1 mM MgCl2) and centrifuged for 10 min. at 40.000×g. Pellets were subsequently reconstituted in assay buffer and an appropriate amount of tissue sample was mixed in tubes with ^3 H-methylcarbamylcholine (NEN, NET-951; final concentration 2 nM) and test drug. The tubes were incubated at 0° C. for 60 min. Unbound ligand was separated from bound ligand by vacuum filtration through GF/B filters presoaked in 0.5 % polyethylenimine. Filters were washed three times with 5 ml wash buffer (50 mM Tris-HCl, pH 7.4) and transferred to vials. 4 ml scintillation fluid was added and the radioactivity was measured by scintillation counting. Unspecific binding was measured with 10 μM nicotine.
The IC50 values of the test compounds were determined by nonlinear regression analyses (GraphPad InPlot).
Table I illustrates the affinity of the compounds of the present invention for nicotinic and muscarinic receptors as determined by ^3 H-MCC and ^3 H-Oxo binding to rat cortical receptors. The compounds, however, show selective affinity for nicotinic receptors as compared to muscarinic receptors, i.e OXO/MCC>1.

Experiment [3] addresses muscarinic acetylcholine receptors. As to the kind of experiment: inhibition of specific binding of ^3 H-Oxotremorine-M (^3 H-Oxo) in rat cortex. As to conditions: rat cortical receptors; 1.0 nM radioligand, 25° C., 30 min. An excerpt: Furthermore, the pharmacological properties of the compounds of the invention can also be illustrated by determining their capability to inhibit the specific binding of ^3 H-Oxotremorine-M (^3 H-Oxo). Birdsdall N. J. M., Hulme E. C., and Burgen A. S. V. (1980). "The Character of Muscarinic Receptors in Different Regions of the Rat Brain". Proc. Roy. Soc. London (Series B) 207,1.
^3 H-Oxo labels muscarinic receptor in the CNS (with a preference for agonist domains of the receptors). Three different sites are labelled by ^3 H-Oxo. […] Using the present experimental conditions only the high and medium affinity sites are determined.
The inhibitory effects of compounds on ^3 H-Oxo binding reflects the affinity for muscarinic acetylcholine receptors.
All preparations are performed at 0-4° C. unless otherwise indicated. Fresh cortex (0.1-1 g) from male Wistar rats (150-250 g) is homogenized for 5-10 s in 10 ml 20 mM Hepes pH: 7.4, with an Ultra-Turrax homogenizer. The homogenizer is rinsed with 10 ml of buffer and the combined suspension centrifuged for 15 min. at 40,000×g. The pellet is washed three times with buffer. In each step the pellet is homogenized as before in 2×10 ml of buffer and centrifuged for 10 min. at 40,000×g.
The final pellet is homogenized in 20 mM Hepes pH: 7.4 (100 ml per g of original tissue) and used for binding assay. Aliquots of 0.5 ml is added 25 μl of test solution and 25 μl of ^3 H-Oxotremorine (1.0 nM, final concentration) mixed and incubated for 30 min. at 25° C. Non-specific binding is determined in triplicate using arecoline (1 μg/ml, final concentration) as the test substance. After incubation samples are added 5 ml of ice-cold buffer and poured directly onto Whatman GF/C glass fiber filters under suction and immediately washed 2 times with 5 ml of ice-cold buffer. The amount of radioactivity on the filters are determined by conventional liquid scintillation counting. Specific binding is total binding minus non specific binding.
Test substances are dissolved in 10 ml water (if necessary heated on a steam-bath for less than 5 min.) at a concentration of 2.2 mg/ml. 25-75% inhibition of specific binding must be obtained before calculation of IC50. The test value will be given as IC50 (the concentration (nM) of the test substance which inhibits the specific binding of ^3 H-Oxo by 50%).
IC50 =(applied test substance concentration)×(Cx /Co
where Co is specific binding in control assays and Cx is the specific binding in the test assay. (The calculations assume normal mass-action kinetics).
Table I illustrates the affinity of the compounds of the present invention for nicotinic and muscarinic receptors as determined by ^3 H-MCC and ^3 H-Oxo binding to rat cortical receptors. […]

For experiment [4], the system named is attention and memory. As to conditions: Alzheimer's disease patients; cited from earlier work.
A further experiment concerns dopamine release. Particulars: nucleus accumbens compared with striatum; cited from earlier work.
The subject of the next experiment is substantia nigra. Particulars: chronic nicotine; lesioning; cited from earlier work.
The test system of experiment [5] is attention and memory. As to conditions: healthy humans; cited from earlier work.
The test system of a further experiment is prefrontal neurons. Particulars: cited from earlier work.
The next experiment relates to Tourette's syndrome. Particulars: in vivo; cited from earlier work.
For another experiment, the system named is dopaminergic effects. Particulars: various behavioral models; cited from earlier work.

The source of these data is patent US5994373A, “Substituted azacyclic compounds” (Novo Nordisk A/S Novo Alle DK 2880, priority 1995, dated 1999).

Each structure is given as a SMILES string. Like-named read-outs stand apart in the source and are kept apart here.

In the case of `C[N+](C)(C)CC#CCN1CCCC1=O` [^3 H-Oxo, ^3 H-Oxotremorine-M], the Kd in experiment [1] (high affinity site) was 1.8 nM; in experiment [1] (medium affinity site), 20 nM; in [1] (third (lowest affinity) site, not determined under present conditions) it was 3000 nM.

In the case of `CNC1(C)C2CCC(C2)C1(C)C` (centres unmarked) [mecamylamine], the cognitive impairment result in the experiment on cognitive function is on record as “cause cognitive impairment in an age related way”.

On to `CCNc1oncc1C1=CCCN(C)C1.O=C(O)C(=O)O` [Compound 5, 3-(5-ethylamino-4-isoxazolyl)-1,2,5,6-tetrahydro-1-methylpyridine oxalate], for which, in [2], the “Oxo/MCC Ratio” value is reported as 23 and the half-maximal inhibitory concentration (IC50) was found to be 62 nM. The compound also had an IC50 in [3] of 1400 nM.

Turning to `CNc1oncc1C1=CCCN(C)C1.O=C(O)C(=O)O` [Compound 3, 3-(5-methylamino-4-isoxazolyl)-1,2,5,6-tetrahydro-1-methylpyridine oxalate], in [2], the “Oxo/MCC Ratio” value is 19 and the 50% inhibitory concentration (IC50) is 230 nM. In experiment [3], this compound registered an IC50 of 4400 nM.

As to `CN1CCC=C(c2cnoc2NCc2ccccc2)C1.O=C(O)C(=O)O` [Compound 14, 3-(5-Benzylamino-4-isoxazolyl)-1,2,5,6-tetrahydro-1-methylpyridine oxalate], in experiment [2], the “Oxo/MCC Ratio” value is 47 and the half-inhibitory concentration (IC50) turned out to be 85 nM. In addition, the half-maximal inhibitory concentration (IC50) in [3] worked out at 4000 nM.

As to `CN1CCCC1c1cccnc1` (centres unmarked) [nicotine], the attention and memory entry in the experiment with attention and memory [4] was “improved attention and memory”; in the experiment with attention and memory [5], “improved attention and memory in healthy humans”. Moreover, the “stimulation of dopamine release” value in the experiment with dopamine release is “stimulates dopamine release in the nucleus accumbens more potently than in striatum”. Also, the “protection against cell loss in the substantia nigra” value in the experiment with substantia nigra is recorded as “may protect against cell loss in the substantia nigra”. Further, the “reversal of inactivation of prefrontal neurons” value in the experiment on prefrontal neurons is listed as “nicotinic reversal of inactivation of prefrontal neurons”. The “effects in Tourette's syndrome” value in the experiment with Tourette's syndrome is “beneficial effects in Tourette's syndrome”. In addition, the “potentiation of dopaminergic effects” value in the experiment with dopaminergic effects is given as “potentiate dopaminergic effects in various behavioral models”.

Consider `CCCNc1oncc1C1=CCCN(C)C1.O=C(O)C(=O)O` [Compound 7, 3-(5-Propylamino-4-isoxazolyl)-1,2,5,6-tetrahydro-1-methylpyridine oxalate], for which, in experiment [2], the “Oxo/MCC Ratio” value is given as 130 and the IC50 is 40 nM. The IC50 in experiment [3] was determined as 5200 nM.
